Measured values as given in ChEMBL document CHEMBL1201862, “PubChem BioAssay data set” (2004).
The source made the active and inactive calls. No stated cut-off is given here; in the data, actives have a measured EC50 and inactives only a lower limit.

Target: T1, Zinc finger protein mex-5 (Caenorhabditis elegans, UniProt Q9XUB2)
T1 sequence (Q9XUB2 whole entry): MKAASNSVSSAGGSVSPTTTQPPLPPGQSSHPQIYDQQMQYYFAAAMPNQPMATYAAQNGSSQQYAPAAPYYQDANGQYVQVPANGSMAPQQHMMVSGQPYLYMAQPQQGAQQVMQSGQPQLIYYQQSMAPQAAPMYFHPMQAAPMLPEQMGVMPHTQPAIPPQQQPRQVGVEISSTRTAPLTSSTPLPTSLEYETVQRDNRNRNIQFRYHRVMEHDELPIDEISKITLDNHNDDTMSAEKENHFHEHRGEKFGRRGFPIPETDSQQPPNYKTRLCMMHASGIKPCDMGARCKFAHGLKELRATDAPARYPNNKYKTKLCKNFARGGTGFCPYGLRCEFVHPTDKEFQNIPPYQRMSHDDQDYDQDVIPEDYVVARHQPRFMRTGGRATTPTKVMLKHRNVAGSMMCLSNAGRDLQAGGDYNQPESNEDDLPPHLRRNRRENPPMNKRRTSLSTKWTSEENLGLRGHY
Test: MEX-5/TCR-2 RNA interaction inhibitors, dose response, biochemical, C. elegans, fluorescence polarization (AID 1960)

Oc1ccc(/C=N/NC(=S)Nc2cccnc2)c(O)c1O
EC50: 0.086 µM (active)
